Results published in patent US20260041667A1 (priority 2021, published 2026).

What was measured:
Beagle dogs = test: 14-day repeat-dose intranasal toxicity and toxicokinetic study in dogs (Study 62959); type: in vivo; conditions: dog
Method: Assessments of mortality, clinical signs, olfactory reflex, body weights, food consumption, ophthalmology, and electrocardiograms were performed.

Sprague Dawley rats = test: 14-day repeat-dose intranasal toxicity and toxicokinetic study in rats (Study 700041); conditions: rat
[1] = biological target: hERG potassium channel current (IKr) (Homo sapiens, UniProt Q12809); conditions: Phase 1, 30 μM in protein free perfusate, n=3
Excerpt: This assay is employed as a screen to assess potential risks for QT interval prolongation.

[2] = intranasal 0.4 mg/kg/day, Day 1, Female
[3] = intranasal 0.4 mg/kg/day, Day 1, Male
[4] = intranasal 0.4 mg/kg/day, Day 14, Female
[5] = intranasal 0.4 mg/kg/day, Day 14, Male
[6] = intranasal 0.8 mg/kg/day, Day 1, Male
[7] = intranasal 0.8 mg/kg/day, Day 14, Male
[8] = intranasal 5 mg/kg/day, Day 1, Female
[9] = intranasal 5 mg/kg/day, Day 1, Male
[10] = intranasal 5 mg/kg/day, Day 14, Female
[11] = intranasal 5 mg/kg/day, Day 14, Male
[12] = intranasal 20 mg/kg/day, Day 1, Female
[13] = intranasal 20 mg/kg/day, Day 1, Male
[14] = intranasal 20 mg/kg/day, Day 14, Female
[15] = intranasal 20 mg/kg/day, Day 14, Male
[16] = intranasal 75 mg/kg/day, Day 1, Female
[17] = intranasal 75 mg/kg/day, Day 1, Male
[18] = intranasal 75 mg/kg/day, Day 14, Female
[19] = intranasal 75 mg/kg/day, Day 14, Male

hERG potassium channel current (IKr), sequence (Q12809 whole entry): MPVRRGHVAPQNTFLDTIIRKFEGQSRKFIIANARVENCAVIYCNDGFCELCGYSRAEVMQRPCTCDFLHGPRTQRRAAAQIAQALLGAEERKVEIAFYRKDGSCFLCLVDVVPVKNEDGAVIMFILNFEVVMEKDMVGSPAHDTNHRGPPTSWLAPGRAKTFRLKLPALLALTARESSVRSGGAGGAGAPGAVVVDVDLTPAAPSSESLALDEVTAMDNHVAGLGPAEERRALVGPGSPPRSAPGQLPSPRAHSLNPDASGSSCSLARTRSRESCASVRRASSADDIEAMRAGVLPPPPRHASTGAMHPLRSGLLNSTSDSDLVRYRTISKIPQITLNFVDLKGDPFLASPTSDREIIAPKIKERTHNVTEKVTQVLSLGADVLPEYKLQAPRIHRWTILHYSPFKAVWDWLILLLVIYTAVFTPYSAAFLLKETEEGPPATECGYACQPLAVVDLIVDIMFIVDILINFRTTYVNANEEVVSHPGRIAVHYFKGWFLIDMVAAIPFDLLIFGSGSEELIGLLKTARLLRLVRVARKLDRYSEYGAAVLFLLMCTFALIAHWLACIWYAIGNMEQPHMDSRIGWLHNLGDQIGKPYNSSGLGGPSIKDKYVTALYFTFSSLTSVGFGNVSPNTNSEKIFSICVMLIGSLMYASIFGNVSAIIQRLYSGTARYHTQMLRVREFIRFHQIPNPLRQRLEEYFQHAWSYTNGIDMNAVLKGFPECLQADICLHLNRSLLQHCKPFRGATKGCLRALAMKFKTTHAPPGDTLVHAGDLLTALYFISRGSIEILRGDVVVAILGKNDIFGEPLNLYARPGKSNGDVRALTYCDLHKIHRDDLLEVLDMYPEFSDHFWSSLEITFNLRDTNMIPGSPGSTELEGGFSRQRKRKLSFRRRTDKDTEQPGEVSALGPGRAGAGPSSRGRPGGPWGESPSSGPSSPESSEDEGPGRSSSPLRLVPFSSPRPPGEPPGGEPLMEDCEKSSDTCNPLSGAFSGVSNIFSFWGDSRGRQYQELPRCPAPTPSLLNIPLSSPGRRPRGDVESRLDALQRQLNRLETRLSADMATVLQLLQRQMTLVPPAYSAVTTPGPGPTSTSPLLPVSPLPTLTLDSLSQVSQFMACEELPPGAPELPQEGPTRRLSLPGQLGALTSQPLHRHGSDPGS

## COc1ccc2[nH]cc(CCN(C)C)c2c1 [Compound 5-MeO-DMT, 5-methoxy-N,N-dimethyltryptamine]
Beagle dogs; [2]
  AUC0-Tlast: 104 ng·h/mL
  AUCINF—obs: 106 ng·h/mL
  t1/2: 18.7 min
Beagle dogs; [3]
  AUC0-Tlast: 77.9 ng·h/mL
  AUCINF—obs: 80.9 ng·h/mL
  t1/2: 34.3 min
Beagle dogs; [4]
  AUC0-Tlast: 86.4 ng·h/mL
  AUCINF—obs: 95.9 ng·h/mL
  Cmax: 196 ng/mL
Beagle dogs; [5]
  AUC0-Tlast: 70.6 ng·h/mL
  AUCINF—obs: 77.7 ng·h/mL
  Cmax: 285 ng/mL
Beagle dogs; [6]
  AUC0-Tlast: 152 ng·h/mL
  Cmax: 300 ng/mL
  t1/2: 35.7 min
Beagle dogs; intranasal 0.8 mg/kg/day, Day 14, Female
  t1/2: 95.4 min
Beagle dogs; [7]
  AUC0-Tlast: 298 ng·h/mL
  AUCINF—obs: 322 ng·h/mL
  Cmax: 411 ng/mL
  t1/2: 79.2 min
Sprague Dawley rats; [8]
  AUC0-Tlast [SE]: 53.2 [15.9] h*ng/mL
  AUCINF—obs: (53.7) h*ng/mL
  Cmax [SE]: 186 [98.7] ng/mL
  Tmax: 9.96 min
Sprague Dawley rats; [9]
  AUC0-Tlast [SE]: 39.9 [7.35] h*ng/mL
  AUCINF—obs: (40.1) h*ng/mL
  Cmax [SE]: 191 [45.6] ng/mL
Sprague Dawley rats; [10]
  AUC0-Tlast [SE]: 63.8 [4.55] h*ng/mL
  AUCINF—obs: (64.0) h*ng/mL
  Cmax [SE]: 645 [106] ng/mL
  t1/2: 6.78 min
Sprague Dawley rats; [11]
  AUC0-Tlast [SE]: 114 [13.8] h*ng/mL
  AUCINF—obs: (115) h*ng/mL
  Cmax [SE]: 627 [102] ng/mL
Sprague Dawley rats; [12]
  AUC0-Tlast [SE]: 198 [15.2] h*ng/mL
  AUCINF—obs: (198) h*ng/mL
  Cmax [SE]: 679 [162] ng/mL
Sprague Dawley rats; [13]
  AUC0-Tlast [SE]: 420 [62.1] h*ng/mL
  AUCINF—obs: (421) h*ng/mL
  Cmax [SE]: 4190 [1040] ng/mL
  t1/2: 7.5 min
Sprague Dawley rats; [14]
  AUC0-Tlast [SE]: 169 [21.2] h*ng/mL
  AUCINF—obs: (169) h*ng/mL
  Cmax [SE]: 795 [115] ng/mL
Sprague Dawley rats; [15]
  AUC0-Tlast [SE]: 133 [57.2] h*ng/mL
  AUCINF—obs: (133) h*ng/mL
  Cmax [SE]: 1200 [857] ng/mL
Sprague Dawley rats; [16]
  AUC0-Tlast [SE]: 228 [49.7] h*ng/mL
  AUCINF—obs: (228) h*ng/mL
  Cmax [SE]: 1310 [802] ng/mL
  t1/2: 9.36 min
Sprague Dawley rats; [17]
  AUC0-Tlast [SE]: 1030 [114] h*ng/mL
  AUCINF—obs: (1040) h*ng/mL
  Cmax [SE]: 7010 [1010] ng/mL
Sprague Dawley rats; [18]
  AUC0-Tlast [SE]: 155 [53.8] h*ng/mL
  AUCINF—obs: (156) h*ng/mL
  Cmax [SE]: 870 [361] ng/mL
  t1/2: 7.8 min
Sprague Dawley rats; [19]
  AUC0-Tlast [SE]: 391 [228] h*ng/mL
  AUCINF—obs: (392) h*ng/mL
  Cmax [SE]: 3290 [2510] ng/mL
  t1/2: 6.96 min
[1]
  Inhibition of hERG potassium ion current: 77.8±7.4%
